{"source": "patent US20180344690A1", "about": "“Methods and Formulation for Enhancing Response to Radiotherapy” (The Board of Trustees of the Leland Stanford Junior …, priority 2017, published 2018)", "origin": "cited, not measured here", "key": {"[1]": {"system": "multiple myeloma (MM)", "conditions": "cited from earlier work"}, "[2]": {"system": "APL", "conditions": "untreated control 18 days; cytarabine vs cytarabine+Plerixafor p<0.0006; cited from earlier work"}}, "data": [{"compound": "CC(C)C[C@H](NC(=O)[C@H](Cc1ccccc1)NC(=O)c1cnccn1)B(O)O", "note": "[bortezomib]", "values": [{"measurement": "tumor progression", "setting": "[1]; bortezomib vs control P=0.041, combination vs control P=0.001, vs bortezomib alone P=0.021", "result": "reduction in tumor progression compared with control"}, {"measurement": "tumor involvement in BM, liver and spleen", "setting": "[1]; mouse, in vivo", "result": "significant decrease of tumor cells"}]}, {"compound": "Nc1ccn([C@@H]2O[C@H](CO)[C@@H](O)[C@@H]2O)c(=O)n1", "note": "[cytarabine]", "values": [{"measurement": "median overall survival", "setting": "[2]", "result": 23, "unit": "days"}]}]}
